Experimental data: US7342018B2, “Urokinase inhibitors and uses thereof” (Wilex AG, priority 1998, dated 2008)

How the values were obtained:
[1] = test system: human ovarian carcinoma cells OV-MZ-6; test: Cytotoxicity determination (tetrazolium salt conversion, Promega); assay type: cell-based
From the text: To determine cell proliferation/cytotoxicity a commercially available test was used (Promega) which is based on the cellular conversion of a tetrazolium salt. The colored product resulting from this reaction can be quantified by means of an ELISA spectrometer (ICN flow). The synthetic inhibitor (open circles) had no effect on the growth of the human ovarian carcinoma cells OV-MZ-6 (FIG. 1) when compared with the solvent alone (closed circles). Thus, the inventive uPA inhibitor is not cytotoxic in pharmacologically effective concentrations up to 40 μM.

[2] = test system: human breast carcinoma cells; test: Fibrin matrix degradation assay (D dimer ELISA); assay type: cell-based; settings: different concentrations, 4 h (FIG. 2)
Method: To study the potential of tumor cells for breaking down an extracellular matrix, a fibrin matrix degradation assay was developed and used. A greater proteolytic activity of the tumor cells leads to a higher concentration of fibrin degradation products in the matrix supernatant. The matrix degradation capacity corresponds to the concentration of fibrin degradation products which are determined by means of ELISA (D dimer).
The fibrin gels were prepared in 24-well culture dishes from […] of fibrinogen (50 mg/ml) in PBS (pH 7.4), by 50 μl of thrombin (10 U/ml) and 50 μl of CaCl2 (150 mM) per well after incubation at 37° C. for 30 minutes. 2×10^5 breast carcinoma cells were seeded on said fibrin matrix in 1 ml of DMEM culture medium plus 10% fetal calf serum and 2 μg of Glu-plasminogen, and incubated for 4 h. The supernatant was then centrifuged, in order to remove the cells, and the fibrin degradation products were quantified by means of ELISA.

CCOC(=O)N1CCN(C(=O)[C@H](Cc2cccc(C(=N)N)c2)NS(=O)(=O)c2c(C(C)C)cc(C(C)C)cc2C(C)C)CC1.Cl [uPA inhibitor, Nα-2,4,6-Triisopropylphenylsulfonyl-(L)-3-amidinophenylalanine 4-ethoxycarbonylpiperazide hydrochloride]
effect on the growth of OV-MZ-6 cells ([1]; compared with the solvent alone (FIG. 1)): no effect
cytotoxicity ([1]; concentrations up to 40 μM): not cytotoxic
inhibition of fibrin matrix degradation by breast carcinoma cells [2]: significant inhibition
